# Measured values as given in patent US6465258B1, “FXR receptor-mediated modulation cholesterol metabolism” (Tularik, Inc., priority 1999, dated 2002).
# “Also recorded” adds a separate entry of the source.
# Key:
# LXRα [1] = biological target: T1, LXRα (Homo sapiens, UniProt Q13133); assay: ELISA peptide sensor assay, LXRα control; assay type: binding; settings: FIG. 5C bottom panel
# T1 sequence (Q13133 1-447): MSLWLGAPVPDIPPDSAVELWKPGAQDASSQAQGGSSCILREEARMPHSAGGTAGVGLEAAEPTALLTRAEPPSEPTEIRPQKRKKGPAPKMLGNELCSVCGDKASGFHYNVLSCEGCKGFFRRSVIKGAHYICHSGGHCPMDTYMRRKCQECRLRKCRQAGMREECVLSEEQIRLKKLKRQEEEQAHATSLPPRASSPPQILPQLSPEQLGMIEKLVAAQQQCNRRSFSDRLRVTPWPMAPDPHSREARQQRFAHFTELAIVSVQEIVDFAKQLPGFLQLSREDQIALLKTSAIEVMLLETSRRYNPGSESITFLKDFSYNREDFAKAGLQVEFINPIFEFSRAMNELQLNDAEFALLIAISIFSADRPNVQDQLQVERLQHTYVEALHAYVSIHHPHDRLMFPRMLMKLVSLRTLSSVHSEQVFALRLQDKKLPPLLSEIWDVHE
# From the text: A peptide sensor was used.
# LXRα [2] = biological target: T1, LXRα; assay: FRET (HTRF) LXRα receptor control; assay type: binding; settings: FIG. 5B bottom panel
# [3] = test system: HNF4α, LXRα, RXRα and LXRβ ligand-binding domains fused to Gal4 DBD; assay: GAL4 DBD fusions with LBDs of other nuclear receptors, luciferase reporter in HepG2 cells; assay type: cell-based; settings: 50 μM CDCA, FIG. 1A
# FXR / cyp7a promoter = settings: HepG2 cells
# full-length FXR = biological target: T2, full-length FXR (Homo sapiens, UniProt Q96RI1); assay: pGL3 3X FXRE luciferase reporter with full-length FXR in HepG2 cells; assay type: cell-based; settings: panel of bile acids, FIG. 4C
# T2 construct: a plasmid expressing full-length FXR (PFXR); expressed in transfected cells; host or cells: HepG2
# T2 sequence (Q96RI1 1-486): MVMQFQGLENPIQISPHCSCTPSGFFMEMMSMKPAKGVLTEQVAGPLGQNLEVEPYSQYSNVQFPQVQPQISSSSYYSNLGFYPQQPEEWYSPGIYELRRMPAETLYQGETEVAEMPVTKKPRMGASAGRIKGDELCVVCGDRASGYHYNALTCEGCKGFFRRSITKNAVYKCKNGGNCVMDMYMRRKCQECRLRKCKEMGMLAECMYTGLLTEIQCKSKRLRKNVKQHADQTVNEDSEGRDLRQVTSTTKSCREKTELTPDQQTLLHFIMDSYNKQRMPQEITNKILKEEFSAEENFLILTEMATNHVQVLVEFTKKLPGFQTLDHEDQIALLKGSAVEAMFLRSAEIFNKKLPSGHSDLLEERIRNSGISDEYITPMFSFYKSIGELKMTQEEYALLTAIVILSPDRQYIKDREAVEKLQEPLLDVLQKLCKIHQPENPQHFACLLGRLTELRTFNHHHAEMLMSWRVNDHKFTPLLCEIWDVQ
# From the text: The ability of different bile acids and derivatives to activate FXR-mediated transactivation was also examined.
smiles,measurement,setting,value
"C[C@H](CCC1OC1(C)C)[C@H]1CC[C@H]2[C@@H]3CC=C4C[C@@H](O)CC[C@]4(C)[C@H]3CC[C@]12C (stereo partly drawn) [24,25 epoxycholesterol]",binding of sensor peptide to LXRα control (ELISA),LXRα [1],increased binding
same,binding of LXRα receptor control by FRET,LXRα [2],affected
"C[C@H](CCC(=O)O)[C@H]1CC[C@H]2[C@@H]3[C@H](O)C[C@@H]4C[C@H](O)CC[C@]4(C)[C@H]3CC[C@]12C [CDCA, chenodeoxycholic acid]",activation of ligand binding domains of other nuclear receptors fused to GAL4 DBD,[3],not activated
same,suppression of CYP7 expression by nuclear receptors in presence of CDCA,"FXR / cyp7a promoter; 10 μM CDCA, FXR vs CPF, HNF4α, LXRα, RXRα, FIG. 2A",Only FXR suppressed CYP7 expression
same,"FXR-mediated suppression of CYP7 expression, rank among bile acids","FXR / cyp7a promoter; panel of bile acids, FIG. 4D",highest level of suppression; also recorded: largest repression
"CC(CCC(=O)NCC(=O)O)C1CCC2C3C(O)CC4CC(O)CCC4(C)C3CCC12C (stereo not drawn) [GCDCA, glycochenodeoxycholic acid]","induction of luciferase reporter activity (FXR-mediated transactivation), rank among bile acids",full-length FXR,greatest induction
